Measured values reported in US20260266837A1, “Methods for Cancer Recurrence Detection and Treatment Thereof” (Institut Curie, priority 2022, published 2026).

How the values were obtained:
tumors in mice = assay: Capecitabine and GSK-J4 treatment of mice, tumor volume and disease-free survival; format: in vivo
Description: FIG. 5c: Five mice were treated intraperitoneally with DMSO, five mice were treated intraperitoneally with GSK-J4 alone at a dose of 50 mg/kg, 5 d/week for 25 days. Twenty-five mice were treated orally with Capecitabine at a dose of 540 mg/kg, 5 d/week for 36 days and twenty-five mice were co-treated with Capecitabine and GSK-J4 for 36 days. Tumor volumes (mm3) were measured to follow recurrence. FIG. 5d: Disease-free survival was defined as the number of days between the observation of a complete response (relative tumor volume RTV compared to volume at onset of treatment<0.2) after the first round of Capecitabine treatment, and the appearance of a recurrent tumor (RTV>3). Statistical analysis was performed using a log-rank test.

BT20 and HCC38 = assay: Colony forming assay, 5-FU with KDM6A/Bi, additional TNBC cell lines; format: cell-based, human; details: BT20 and HCC38, 5-FU
Description: (§1) Cell lines, culture conditions and drug treatments. MDA-MB-468 cells were cultured in DMEM (Gibco-BRL, Ref: 11966025), supplemented with 10% heat-inactivated fetal calf serum (Gibco-BRL, Ref: 10270-106). HCC38 and BT20 cell lines were cultured in RPMI 1640 (Gibco-BRL, Ref: 11875085), supplemented with 10% heat-inactivated fetal calf serum. All cell lines were cultured in a humidified 5% CO2 atmosphere at 37° C., and were tested as mycoplasma negative. […] Cells were treated with 5 μM of 5-FU (Sigma, Ref: F6627) alone or in combination with KDM6A/Bi or EZH2i for indicated days. For EZH2i, cells were pretreated with UNC 1999, UNC 2400 or GSK 126 for 10 days before the addition of 5-FU for an additional 21 days (FIG. 4 and Extended FIG. 8).
(§2) Colony forming assay. TBNC cells were plated in 6 multi-well plates at a density of 200,000 cells per well and treated with the indicated drugs for 60 days (MDA-MB-468, FIG. 5a/b and Extended FIG. 9b) or 56 days (BT20) or 50 days (HCC38) (Extended FIG. 9). Cultures were incubated in humidified 37° C. incubators with an atmosphere of 5% CO2 in air, and treated plates were monitored for growth using a microscope. At the time of maximum foci formation, colony formation was evaluated after a staining with 0.5% Crystal Violet (Sigma, ref: C 3886).

MDA-MB-468 [1] = assay: Colony forming assay and persister cell count, 5-FU with KDM6A/Bi; format: cell-based, human
Description: as §1, §2

[2] = system: patient-derived xenograft (PDX) models PDX_95, PDX_39 & PDX_172 established from patients with residual TNBC; assay: Capecitabine treatment of TNBC patient-derived xenograft models; format: in vivo, mice; details: oral Capecitabine
Excerpt: Patient samples and PDX models. Patient samples used in this study (n=9) originated from patient treated at Institut Curie with residual triple-negative breast cancers post-neoadjuvant chemotherapy, who gave informed consent for the profiling. In this study, we used three xenograft models generated from three different residual triple-negative breast cancers post-neoadjuvant chemotherapy (HBCx95 called PDX_95, HBCx39 called PDX_39 and HBCx172 called PDX_172 in the manuscript, see Extended Table2) established previously at Curie Institute with informed consent from the patient^46,47. Female Swiss nude mice were purchased from Charles River Laboratories and maintained under specific-pathogen-free conditions. Mouse care and housing were in accordance with institutional guidelines and the rules of the French Ethics Committee (project authorization no. 02163.02).
FIG. 1b: Five mice were not treated and kept as controls (termed “untreated”) and twenty-seven mice were treated orally with Capecitabine (Xeloda; Roche Laboratories) at a dose of 540 mg/kg, 5 d/week for 6 to 14 weeks. Relative tumor volumes (mm3) were measured as described previously^18. Eight mice were sacrificed after the first round of chemotherapy to study “residual” tumors (2 mice) or “persister” (6 mice) human tumor cells. […]

MDA-MB-468 [3] = assay: Prolonged 5-FU treatment, cell proliferation and survival; format: cell-based, human
Description: as §1, with “serum.” for “serum. All cell lines were cultured in a humidified 5% CO2 atmosphere at 37° C., and were tested as mycoplasma negative.”

[4] = system: MDA-MB-468 untreated and chemoresistant cells; assay: XTT cell cytotoxicity, IC50 to 5-FU; format: cell-based, human; details: resistant cells after over 15 weeks of 5-FU, 72 h XTT
Description: MDA-MB-468 untreated and chemoresistant cells were plated in 96 multi-well plates at a density of 10,000 cells per well and treated with increased concentration of 5-FU (1 μM to 0.5M) for 72 h. Cell cytotoxicity was assayed with XTT kit (Sigma, Ref: 11465015001) and IC 50 was calculated as the concentration of 5-FU that is required to obtain 50% of cell viability (Extended FIG. 2b).

[5] = system: MDA-MB-468, BT20 and HCC38; assay: Number of persister cells after EZH2i pre-treatment and 5-FU; format: cell-based, human; details: 10 days pre-treatment, then 5-FU for 21 days
Description: Cell lines, culture conditions and drug treatments. […] All cell lines were cultured in a humidified 5% CO2 atmosphere at 37° C., and were tested as mycoplasma negative. […] Cells were treated with 5 μM of 5-FU (Sigma, Ref: […]) alone or in combination with KDM6A/Bi or EZH2i for indicated days. […] Cell proliferation, doubling time and IC50. MDA-MB-468, HCC38 and BT20 cells were stained with Trypan Blue (Invitrogen, Ref: T10282) exclusion test, and counted using a Countess automated cell counter (Invitrogen, Ref: C10228) at indicated time of treatment (FIG. 4a and Extended FIG. 8a/d/f).

H3K27me3, EZH2 = molecular target: T1, H3K27me3, EZH2 (Homo sapiens, UniProt Q15910); assay: Western blotting of EZH2i-treated cells; format: cell-based; details: prior to chemotherapy treatment
T1 construct: endogenous in cells; host or cells: MDA-MB-468, HCC38 or BT20
Description: Western blotting. In Extended FIG. 8b/e/g, DMSO- and EZH2i-treated cells were lysed at 95° C. for 10 minutes in Laemmli buffer (50 mM Tris-HCl [pH 6.8], 2% SDS, 5% glycerol, 2 mM DTT, 2.5 mM EDTA, 2.5 mM EGTA, 4 mM Sodium Orthovanadate, 20 mM Sodium Fluoride, protease inhibitors, phosphatase inhibitors) and proteins concentrations were measured using a Pierce BCA protein Assay Kit (Thermo Fisher Scientific, Ref: 23225/23227). 10 μg of proteins were then separated on a 4-15% Mini-PROTEAN TGX Stain-Free Gel (Bio-Rad, Ref: 4568085) at 160V. After transfer, the membrane was blocked for 1 h at room temperature in PBS pH 7.4 containing 0.1% Tween-20 and 1% milk (Regilait). Incubation anti-H3K27me3 (Dilution: 1:2000, Cell Signaling, Ref: 9733) or EZH2 (Dilution: 1:2000, Cell Signaling, Ref: 5246) or Tubulin (Dilution: 1:1000, Thermo Fisher Scientific, Ref: 31460) primary antibodies diluted in PBS pH 7.4, 0.1% Tween-20 were performed at 4° C. overnight.

MDA-MB-468 cells = assay: Lineage barcode frequencies and diversity under 5-FU with EZH2i; format: cell-based, human; details: co-treatment with 5-FU, bulk lineage barcodes
Excerpt: Lentivirus packaging and cell transduction. Lentivirus was produced by transfecting the barcode plasmids pRRL-CMV-GFP-BCv2Ascl and p8.9-QV and pVSVG into HEK293T cells as previously described^30. MDA-MB-468 cells from ATCC were infected at passage 11 with lentivirus produced from the barcode library (pRRL-CMV-GFP-BCv 2Ascl) which includes 18206 different barcodes of 20 bp of a random stretch, at a low multiplicity of infection (MOI 0.1) to minimize the number of cells marked by multiple barcodes. Three weeks after transduction, cells were sorted for GFP expression to select cells with barcode insertion, and used for drug treatment.
Bulk lineage barcode library preparation and sequencing. Lineage barcodes are recovered by isolating genomic DNA from cells of interest (NucleoSpin Tissue, Mini kit for DNA from cells and tissue, Macherey Nagel, Ref: 740952.50). From the isolated genomic DNA, barcodes are amplified with three nested PCR steps as decribed in^30 (see Extended Table 1 for primer sequence). In short, after a first specific PCR for the common region of the lineage barcodes, the amplified material was prepared for sequencing by addition of the illumina sequencing adaptaters and indexing and purification. Sequencing was done in order to obtain 50 reads, on average, per barcoded cell.
Single-cell lineage barcode extraction from 10× datasets. […] To avoid running scripts on all reads we: 1. used samtools to extract all unmapped reads from the 10× output bam file, 2. used awk to take reads with either a 3′ or 5′ 20 bp match to the constant flanking region of the barcode allowing one mismatch, 3. retained only reads with both a 10× cell barcode and 10× UMI. We then located the 20 bp match to one of the constant flanking regions allowing one mismatch (but filtered out reads where a mismatch was in the first or last base to ensure the barcode is at the expected position). We then further required a 4 bp exact match on the other side of the barcode, and then extracted the 20 bp viral barcode, read name, 10× cell barcode and 10× UMI.
To assign one viral barcode to each 10× cell barcode, we determined a consensus viral barcode for each UMI. For each position in the barcode we returned the most frequently observed base and the proportion of reads supporting this consensus. Barcodes associated with a 10× CB-UMI pair were filtered if the proportion of reads supporting a position was ≤0.5 at ≥3 positions. […]
Bulk barcode pre-processing. […] In brief, using R-3.4.0 (R Development Core Team (2019) http://www.R-project.org), raw reads were first filtered for perfect to the input index-and common-sequences using XCALIBR (https://github.com/NKI-GCF/xcalibr) and filtered against the barcode reference list. […]

T1 sequence (Q15910 whole entry): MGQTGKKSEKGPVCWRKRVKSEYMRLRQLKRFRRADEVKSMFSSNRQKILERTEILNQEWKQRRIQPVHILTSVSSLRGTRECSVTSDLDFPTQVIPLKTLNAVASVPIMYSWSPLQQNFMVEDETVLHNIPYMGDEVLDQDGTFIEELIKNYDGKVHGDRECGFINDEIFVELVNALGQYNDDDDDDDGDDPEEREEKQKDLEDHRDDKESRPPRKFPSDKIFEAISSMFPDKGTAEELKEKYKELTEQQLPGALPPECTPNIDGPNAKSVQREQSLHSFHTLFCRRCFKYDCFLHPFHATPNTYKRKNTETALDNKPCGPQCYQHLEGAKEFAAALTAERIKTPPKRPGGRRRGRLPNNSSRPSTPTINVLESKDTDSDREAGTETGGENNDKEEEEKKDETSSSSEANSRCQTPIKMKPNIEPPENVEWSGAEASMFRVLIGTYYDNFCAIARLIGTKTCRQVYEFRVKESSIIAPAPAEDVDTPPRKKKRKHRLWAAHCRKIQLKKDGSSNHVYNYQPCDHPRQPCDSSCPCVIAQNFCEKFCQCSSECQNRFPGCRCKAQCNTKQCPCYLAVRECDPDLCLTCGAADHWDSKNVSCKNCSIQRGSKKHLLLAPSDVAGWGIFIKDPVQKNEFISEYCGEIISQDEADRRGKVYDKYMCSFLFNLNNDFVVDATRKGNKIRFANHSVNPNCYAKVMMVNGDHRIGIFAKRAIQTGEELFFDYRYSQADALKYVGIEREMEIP
T1 sequence (O75530 whole entry partner): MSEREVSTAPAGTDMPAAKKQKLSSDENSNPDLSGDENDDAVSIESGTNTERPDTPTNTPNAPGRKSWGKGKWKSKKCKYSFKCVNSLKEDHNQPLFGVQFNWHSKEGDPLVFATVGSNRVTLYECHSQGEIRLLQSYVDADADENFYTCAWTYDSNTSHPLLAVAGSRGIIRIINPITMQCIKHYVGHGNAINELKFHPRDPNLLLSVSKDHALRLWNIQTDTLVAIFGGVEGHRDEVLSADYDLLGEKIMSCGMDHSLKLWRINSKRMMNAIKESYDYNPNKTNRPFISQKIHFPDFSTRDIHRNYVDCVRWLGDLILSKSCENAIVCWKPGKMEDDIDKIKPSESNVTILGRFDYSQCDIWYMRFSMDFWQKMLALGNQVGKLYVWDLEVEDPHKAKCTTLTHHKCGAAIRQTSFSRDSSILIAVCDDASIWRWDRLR
T1 sequence (Q15022 whole entry partner): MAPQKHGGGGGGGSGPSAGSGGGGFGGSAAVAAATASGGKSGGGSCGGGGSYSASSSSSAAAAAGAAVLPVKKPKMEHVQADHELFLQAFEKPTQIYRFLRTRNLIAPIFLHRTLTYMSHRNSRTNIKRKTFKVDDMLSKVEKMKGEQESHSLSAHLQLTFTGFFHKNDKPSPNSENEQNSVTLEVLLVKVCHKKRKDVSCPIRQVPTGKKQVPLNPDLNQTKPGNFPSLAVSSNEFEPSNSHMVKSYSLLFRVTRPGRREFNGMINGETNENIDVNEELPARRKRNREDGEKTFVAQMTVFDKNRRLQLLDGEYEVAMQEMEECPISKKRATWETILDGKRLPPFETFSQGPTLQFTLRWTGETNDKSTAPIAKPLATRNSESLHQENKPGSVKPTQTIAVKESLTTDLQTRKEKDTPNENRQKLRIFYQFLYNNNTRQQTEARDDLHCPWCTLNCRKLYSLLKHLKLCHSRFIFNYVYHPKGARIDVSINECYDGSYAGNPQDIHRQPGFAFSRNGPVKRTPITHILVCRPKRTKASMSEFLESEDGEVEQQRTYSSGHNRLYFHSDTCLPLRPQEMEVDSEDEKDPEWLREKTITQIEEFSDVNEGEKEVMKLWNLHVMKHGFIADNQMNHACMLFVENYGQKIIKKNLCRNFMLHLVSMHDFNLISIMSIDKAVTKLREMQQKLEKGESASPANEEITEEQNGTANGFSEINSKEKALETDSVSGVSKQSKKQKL

CCOC(=O)CCNc1cc(N2CCc3ccccc3CC2)nc(-c2ccccn2)n1 [GSK-J4]
toxicity for the mice (tumors in mice; GSK-J4 50 mg/kg intraperitoneally): nor was toxic for the mice | tumor progression in absence of chemotherapy (tumors in mice; GSK-J4 alone, 50 mg/kg intraperitoneally): did not inhibit tumor progression | delay to recurrence (disease-free survival) (tumors in mice; in combination with Capecitabine versus Capecitabine alone, n=25 each, p=4.0e-2): significantly increased the delay to recurrence | confirmation of KDM6i effects on persister cells (BT20 and HCC38): confirmed | effect when administered once persister cells have emerged (MDA-MB-468 [1]; added after onset of 5-FU rather than in combination): inefficient | number of persisters at day 21 (MDA-MB-468 [1]; co-treatment with 5-FU): decrease in the number of persisters | growth of persister cells under 5-FU at day 60 (MDA-MB-468 [1]; co-treatment with 5-FU, colony forming assay): completely abolished the growth of persister cells | effect on untreated cancer cells (MDA-MB-468 [1]; without 5-FU): no effect on untreated cancer cells

CCCCCOC(=O)Nc1nc(=O)n([C@@H]2O[C@H](C)[C@@H](O)[C@H]2O)cc1F [Capecitabine]
tumor response to first round of chemotherapy [2]: mice displayed a pathological complete response (pCR), but tumors eventually recurred

O=c1[nH]cc(F)c(=O)[nH]1 [5-FU, Fluorouracil]
cells surviving drug insult (MDA-MB-468 [3]; MDA-MB-468, 5-FU, after 3 weeks): 0.01 % of the initial population | time until surviving cells started proliferating again under chemotherapy (MDA-MB-468 [3]; MDA-MB-468 persister cells under 5-FU): 10 to 15 days | IC50 to 5-FU of resistant cells relative to untreated population [4]: over 4 fold

CC[C@H](C)n1cc(C)c2c(C(=O)NCc3c(C)cc(C)[nH]c3=O)cc(-c3ccc(N4CCNCC4)nc3)cc21 [EZH2i-2]
number of persister cells [5]: increased the number of persister cells | EZH2 protein levels (H3K27me3, EZH2): without perturbing EZH2 protein levels | H3K27me3 level (H3K27me3, EZH2): erasing H3K27me3 | correlation scores between lineage frequencies in 5-FU and DMSO treated population (MDA-MB-468 cells): increased correlation scores

CCCc1cc(C)n(C)c(=O)c1CN(C)C(=O)c1cc(-c2ccc(N3CCN(C(C)C)CC3)nc2)cc2c1cnn2C(C)C [UNC240034]
number of persister cells [5]: no effect | correlation scores between lineage frequencies in 5-FU and DMSO treated population (MDA-MB-468 cells): no effect on lineage frequencies
